Tests used:
Type in all cases: biochemical
[1] = target: T1, MMP-14 (Homo sapiens, UniProt P50281); assay: MMP-14 inhibition (in vitro Ki); conditions: Table 9; read-out: MMP-14 Ki (IC-50)
T1 construct: The catalytic domain enzyme was expressed in E. coli inclusion bodies, solubilized in urea; made in house

[2] = target: T2, MMP-9 (Homo sapiens, UniProt P14780); assay: MMP-9 inhibition (in vitro Ki); conditions: Table 9; read-out: MMP-9 Ki (IC-50)
T2 construct: made in house; host or cells: MMP-9-transfected HT1080 cells (spent media)
T2 sequence (P14780 107-707 limits assumed): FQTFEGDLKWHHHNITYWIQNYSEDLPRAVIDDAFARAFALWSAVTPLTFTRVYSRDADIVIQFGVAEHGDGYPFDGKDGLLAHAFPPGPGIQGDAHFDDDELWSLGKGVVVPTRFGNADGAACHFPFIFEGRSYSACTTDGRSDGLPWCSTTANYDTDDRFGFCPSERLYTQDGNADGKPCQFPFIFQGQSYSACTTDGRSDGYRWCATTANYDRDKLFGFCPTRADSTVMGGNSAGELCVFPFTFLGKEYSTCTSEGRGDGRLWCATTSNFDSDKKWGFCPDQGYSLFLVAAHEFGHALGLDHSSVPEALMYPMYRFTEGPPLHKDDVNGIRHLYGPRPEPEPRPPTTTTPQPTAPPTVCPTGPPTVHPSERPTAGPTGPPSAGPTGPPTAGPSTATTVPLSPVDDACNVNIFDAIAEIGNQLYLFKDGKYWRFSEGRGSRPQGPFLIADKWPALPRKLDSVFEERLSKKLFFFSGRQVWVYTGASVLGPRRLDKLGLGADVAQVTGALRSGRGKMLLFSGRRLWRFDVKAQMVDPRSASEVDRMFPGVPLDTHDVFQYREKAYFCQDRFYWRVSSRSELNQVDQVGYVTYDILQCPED

[3] = target: T3, MMP-1 (Homo sapiens, UniProt P03956); assay: MMP-1 inhibition (in vitro Ki); conditions: Table 9; read-out: MMP-1 Ki (IC-50)
T3 construct: made in house; host or cells: MMP-1-transfected HT-1080 cells (spent media)
T3 sequence (P03956 100-469): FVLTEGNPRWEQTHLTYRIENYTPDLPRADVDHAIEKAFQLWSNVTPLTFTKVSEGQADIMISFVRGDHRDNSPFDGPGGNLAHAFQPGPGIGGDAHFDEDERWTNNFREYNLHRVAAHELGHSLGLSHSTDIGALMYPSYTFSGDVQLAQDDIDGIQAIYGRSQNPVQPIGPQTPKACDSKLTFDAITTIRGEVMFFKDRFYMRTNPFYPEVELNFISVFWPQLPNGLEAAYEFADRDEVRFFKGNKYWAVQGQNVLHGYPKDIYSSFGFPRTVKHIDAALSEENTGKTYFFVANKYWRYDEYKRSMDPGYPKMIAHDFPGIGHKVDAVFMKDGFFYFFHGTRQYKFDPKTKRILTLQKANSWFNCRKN

[4] = target: T4, MMP-2 (Homo sapiens, UniProt P08253); assay: MMP-2 inhibition (in vitro Ki); conditions: Table 9; read-out: MMP-2 Ki (IC-50)
T4 construct: made in house; host or cells: MMP-2-transfected p2AHT2 cells
T4 sequence (P08253 110-660): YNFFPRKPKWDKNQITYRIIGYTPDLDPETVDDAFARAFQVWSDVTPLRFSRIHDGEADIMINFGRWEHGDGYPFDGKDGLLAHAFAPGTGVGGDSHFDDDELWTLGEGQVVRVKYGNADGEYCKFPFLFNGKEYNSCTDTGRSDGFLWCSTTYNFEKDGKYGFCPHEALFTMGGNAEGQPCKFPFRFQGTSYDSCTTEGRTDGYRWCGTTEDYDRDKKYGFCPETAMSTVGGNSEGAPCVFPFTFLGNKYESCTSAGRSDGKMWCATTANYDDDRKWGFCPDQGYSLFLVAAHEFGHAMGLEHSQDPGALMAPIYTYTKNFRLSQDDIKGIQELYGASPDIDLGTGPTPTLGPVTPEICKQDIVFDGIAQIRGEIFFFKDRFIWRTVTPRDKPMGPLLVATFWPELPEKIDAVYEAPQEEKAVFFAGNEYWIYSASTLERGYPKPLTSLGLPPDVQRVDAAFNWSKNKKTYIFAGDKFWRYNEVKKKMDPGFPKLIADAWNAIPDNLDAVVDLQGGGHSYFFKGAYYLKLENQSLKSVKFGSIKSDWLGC

[5] = target: T5, MMP-13 (Homo sapiens, UniProt P45452); assay: MMP-13 inhibition (in vitro Ki); conditions: Table 9; read-out: MMP-13 Ki (IC-50)
T5 construct: made in house; host or cells: baculovirus / insect cells

Row | Compound | Ki [1] | Ki [2] | Ki [3] | Ki [4] | Ki [5]
1 | O=C(CCCCC1CCN(S(=O)(=O)C2(C(=O)NO)CCOCC2)CC1)Nc1ccc(OC(F)(F)F)cc1 [Example A89] | 8570 nM | 471 nM | 1030 nM | 29.3 nM | 0.66 nM
2 | CC(C)CN(C)C(=O)CCCCC1CCN(S(=O)(=O)C2(C(=O)NO)CCOCC2)CC1 [Example A91] | > 10000 nM | 3800 nM | 2580 nM | 781 nM | 5.08 nM
3 | O=C(CCCCC1CCN(S(=O)(=O)C2(C(=O)NO)CCOCC2)CC1)N1CCCCC1 [Example A92] | > 10000 nM | 1100 nM | 3910 nM | 237 nM | 2.01 nM
4 | CN(C(=O)CCCCC1CCN(S(=O)(=O)C2(C(=O)NO)CCOCC2)CC1)c1ccc(F)cc1 [Example A93] | > 10000 nM | 336 nM | 1050 nM | 92.3 nM | 0.82 nM
5 | CN(C(=O)CCCCC1CCN(S(=O)(=O)C2(C(=O)NO)CCOCC2)CC1)c1ccccc1 [Example A94] | > 10000 nM | 823 nM | 2820 nM | 197 nM | 1.18 nM
6 | O=C(NO)C1(S(=O)(=O)N2CCC(c3ccc(CCc4ccsc4)cn3)CC2)CCOCC1 [Example A95] | 2270 nM | 7.97 nM | 7630 nM | 2.13 nM | 0.376 nM
7 | CN(C(=O)CCCCC1CCN(S(=O)(=O)C2(C(=O)NO)CCOCC2)CC1)C1CCCCC1 [Example A96] | > 10000 nM | 726 nM | 1110 nM | 240 nM | 1.1 nM
8 | O=C(CCCCC1CCN(S(=O)(=O)C2(C(=O)NO)CCOCC2)CC1)N1CCCC1 [Example A97] | > 10000 nM | 592 nM | 496 nM | 135 nM | 1.63 nM
9 | O=C(CCCCC1CCN(S(=O)(=O)C2(C(=O)NO)CCOCC2)CC1)N1CCN(c2ccccc2)CC1 [Example A98] | > 10000 nM | 191 nM | 1620 nM | 38.2 nM | 0.17 nM
10 | CN(Cc1ccco1)C(=O)CCCCC1CCN(S(=O)(=O)C2(C(=O)NO)CCOCC2)CC1 [Example A99] | > 10000 nM | 241 nM | 356 nM | 50.8 nM | 0.79 nM
11 | O=C(NO)C1(S(=O)(=O)N2CCC(c3ccc(CCc4ccccc4)cn3)CC2)CCOCC1 [Example A100] | 1770 nM | 13.2 nM | > 10000 nM | 5.27 nM | 0.45 nM
12 | O=C(NO)C1(S(=O)(=O)N2CCC(c3ccc(CCC(F)(F)C(F)(F)F)cn3)CC2)CC=CC1 [Example A101] | 2640 nM | 0.33 nM | 721 nM | 0.9 nM | 0.17 nM
13 | O=C(NO)C1(S(=O)(=O)N2CCC(c3ccc(CCc4cccs4)cn3)CC2)CCOCC1 [Example A102] | 2160 nM | 3.84 nM | 6280 nM | 1.3 nM | 0.215 nM
14 | COC(=O)CCCCC1CCN(S(=O)(=O)C2(C(=O)NO)CCOCC2)CC1 [Example A103] | 2880 nM | 3.39 nM | 363 nM | 3.84 nM | 1.08 nM
15 | O=C(NO)C1(S(=O)(=O)N2CCC(c3ccc(CCC(F)(F)F)cn3)CC2)CCCC1 [Example A105] | 1130 nM | 0.18 nM | 2170 nM | 0.52 nM | 0.23 nM
16 | O=C(NO)C1(S(=O)(=O)N2CCC(c3ccc(CCC4CCCC4)cn3)CC2)CCOCC1 [Example A106] | 1250 nM | 1.05 nM | 5460 nM | 0.54 nM | 0.14 nM
